US10011571B2, “Preparation method for aromatic heterocyclic compound used as selective JAK3 and/or JAK1 kinase inhibitor and application of aromatic heterocyclic compound” (SHENZHEN CHIPSCREEN BIOSCIENCES, LTD., priority 2014, dated 2018)

Experiments:
[1] = tested on: IL-4/JAK1 & 3/STAT6 (THP-1); assay: Intracellular activity assay, IL-4 induced STAT6 phosphorylation in THP-1; assay type: cell-based; details: Homo sapiens; inhibition of STAT6 phosphorylation, THP-1, IL-4 10 ng/mL
From the text: (§1) In this experiment, western blot (WB) and flow cytometry are used to evaluate the intracellular activities of the test compounds by comparing the relative levels of the signals of phosphorylated and non-phosphorylated STATs in 5 cell models, including U937, THP-1, CTLL-2, UT-7/EPO and activated human periphery blood cell (hPBC). The primary antibody and secondary antibody used in WB hybridization in this experiment are purchased from Cell Signaling Company (http://www.cellsignal.com). The fluorescence-labeled antibodies used in flow cytometry are purchased from eBiosciences Company (http://www.ebioscience.com).
THP-1 is a monocytic cell line. […] The intracellular inhibitory activity of the compounds on JAK1/3 can be evaluated by detecting the change of the phosphorylation level of STAT6. […]
(2) Protein extraction and WB detection: after extraction, the protein content is determined. […]
(3) Signal detection: the hybridization signal is detected by X-ray imaging. The grey scale signal obtained by scanning is converted to digital signal, and the signal intensities for both phosphorylated STATs and STATs are each calculated to evaluate the phosphorylation inhibitory activities of the compounds on STATs. […]
(§2) (2) Cell fixation and fluorescence labeling: the cells are fixed using paraformaldehyde (30 min), and subsequently treated for membrane permeability in chilled methanol (15 min). […]

[2] = tested on: IL-2/JAK1 & 3/STAT5 (CTLL-2); assay: Intracellular activity assay, IL-2 induced STAT5 phosphorylation in CTLL-2; assay type: cell-based; details: Mus musculus; inhibition of STAT5 phosphorylation, CTLL-2, IL-2 10 ng/mL
From the text: as §1
CTLL-2 is a T-cell line, and its proliferation and growth depends on cytokine IL-2. […] The intracellular inhibitory activity of the compounds on JAK1/3 can be evaluated by detecting the change of the phosphorylation level of STAT5. […]
as §2
(3) Detection by flow cytometry: the detection is carried out using Guava® easyCyte flow cytometer according to the instruction. The median fluorescent intensity (MFI) of a sample is detected using an appropriate cell population. […]

Row | Compound | IC50 [1] | IC50 [2]
1 | C=CC(=O)N(C)c1cc(Nc2ncc(Cl)c(NCCCNC(=O)c3ccc(C#N)cc3)n2)ccc1F [Example 7, N-(3-(5-chloro-2-(4-fluoro-3-(N-methylacrylamido)phenylamino)pyrimidinyl-4-amino)propyl)-4-cyano-benzamide] | 1690 nM | 80 nM
2 | C=CC(=O)N(C)c1cc(Nc2ncc(Cl)c(NCCCNC(=O)c3ccc(F)cc3)n2)ccc1F [Example 23, N-(3-(5-chloro-2-(4-fluoro-3-(N-methylacrylamido)phenylamino)pyrimidinyl-4-amino)propyl)-4-fluorobenzamide] | 1730 nM | 130 nM
